Results: patent US8486939B2, “Pyrimidinyl and 1,3,5-triazinyl benzimidazoles and their use in cancer therapy” (Pathway Therapeutics Inc., priority 2009, dated 2013)

Columns and labels:
human tumor xenografts = conditions: mice with human tumor xenografts; cited from earlier work
PI3K = conditions: background, literature; cited from earlier work
NZOV9 = experiment: Cellular growth inhibition (3H-thymidine incorporation); format: cell-based; conditions: Homo sapiens, five days incubation, 3H-thymidine over the last 6 hrs, read-out: Cell IC50* NZOV9
Description: (§1) The compounds were evaluated against two early passage human cell lines NZB5 and NZOV9 (Marshall et al., Oncol. Res. 2004, 14, 297). The cells were grown in ITS medium (α-modified minimal essential medium supplemented insulin, transferrin, selenite, and 5% fetal bovine serum) and grown on 96-well tissue culture plates under an atmosphere of 5% O2, 5% CO2, and 90% N2. Individual wells contained 500-1,000 cells (depending on the growth rate) in a volume of 150 μL. Compounds were added at 10-fold concentration steps to a maximum of 20 μM and plates were incubated for five days, with ^3H-thymidine being added over the last 6 hrs. Cells were harvested and incorporated radioactivity measured. Duplicate samples were analyzed for each compound dose with multiple control samples. Data were fitted by a least-squares method to an exponential of the form y=y0+ae^−bx, where y is the radioactivity (corrected for background and normalized to 100% of the control), x is the […], and y0, a, and b are variables, and the IC50 value defined as the compound concentration reducing ^3H-thymidine levels by 50%.

NZB5 = experiment: as above; format: cell-based; conditions: Homo sapiens, five days incubation, 3H-thymidine over the last 6 hrs, read-out: Cell IC50* NZB5
Description: as §1

p110α/p85 = p110α/p85 (Homo sapiens, UniProt P42336); experiment: Inhibition of isolated enzyme (lipid kinase assay, [γ33P]ATP, TLC); format: biochemical; conditions: recombinant enzyme, 100 μM ATP, 1 hr room temperature, average of two experiments
Method in brief: (§2)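 Each recombinant p110/p85 enzyme (0.1 μg) was incubated with 10 μg L-α-phosphatidylinositol in Tris-HCl pH 7.4 buffer with NaCl and EDTA, 1% final DMSO, and was started with ATP mix (100 μM ATP, 5 mM MgCl2, [γ33P]ATP). Reactions ran 1 h at room temperature, and the lipids were extracted, TLC-separated and phosphorimaged. IC50 came from nine concentrations and is the mean of two experiments.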

p110β/p85 = p110β/p85 (Homo sapiens, UniProt P42338); experiment: as above; format: biochemical; conditions: recombinant enzyme, 100 μM ATP, 1 hr room temperature, average of two experiments
Method in brief: as §2

p110δ/p85 = p110δ/p85 (Homo sapiens, UniProt O00329); experiment: as above; format: biochemical; conditions: recombinant enzyme, 100 μM ATP, 1 hr room temperature, average of two experiments
Method in brief: as §2

p110α/p85, sequence (P42336 whole entry): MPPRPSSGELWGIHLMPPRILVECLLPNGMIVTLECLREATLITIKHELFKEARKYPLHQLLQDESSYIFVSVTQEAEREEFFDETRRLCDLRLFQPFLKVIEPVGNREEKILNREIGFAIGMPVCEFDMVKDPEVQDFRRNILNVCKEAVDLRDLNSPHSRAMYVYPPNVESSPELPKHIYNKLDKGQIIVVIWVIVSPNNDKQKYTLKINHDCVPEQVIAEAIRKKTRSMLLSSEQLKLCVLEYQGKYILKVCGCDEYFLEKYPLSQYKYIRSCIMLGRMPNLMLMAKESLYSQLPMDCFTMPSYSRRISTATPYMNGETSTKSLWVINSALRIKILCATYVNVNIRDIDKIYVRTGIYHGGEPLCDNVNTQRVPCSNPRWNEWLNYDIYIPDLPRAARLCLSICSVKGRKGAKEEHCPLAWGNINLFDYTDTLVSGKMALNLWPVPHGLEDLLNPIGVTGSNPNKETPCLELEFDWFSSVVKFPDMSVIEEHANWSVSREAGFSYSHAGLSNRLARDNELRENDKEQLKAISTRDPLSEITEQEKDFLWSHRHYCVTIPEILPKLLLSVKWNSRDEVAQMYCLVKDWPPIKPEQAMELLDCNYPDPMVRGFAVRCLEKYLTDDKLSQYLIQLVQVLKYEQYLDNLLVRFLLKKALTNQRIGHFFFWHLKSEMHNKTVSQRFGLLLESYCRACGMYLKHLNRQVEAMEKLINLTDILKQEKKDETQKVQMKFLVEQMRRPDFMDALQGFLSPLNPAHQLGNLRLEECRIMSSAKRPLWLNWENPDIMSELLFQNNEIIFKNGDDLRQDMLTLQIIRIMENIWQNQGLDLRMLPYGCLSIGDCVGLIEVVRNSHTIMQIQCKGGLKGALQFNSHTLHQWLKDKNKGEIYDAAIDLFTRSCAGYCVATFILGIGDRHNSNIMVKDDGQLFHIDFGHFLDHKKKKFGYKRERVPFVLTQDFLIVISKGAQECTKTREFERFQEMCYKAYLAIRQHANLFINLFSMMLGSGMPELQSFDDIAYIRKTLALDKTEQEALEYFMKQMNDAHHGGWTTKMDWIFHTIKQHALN
p110α/p85, sequence (P27986 whole entry partner): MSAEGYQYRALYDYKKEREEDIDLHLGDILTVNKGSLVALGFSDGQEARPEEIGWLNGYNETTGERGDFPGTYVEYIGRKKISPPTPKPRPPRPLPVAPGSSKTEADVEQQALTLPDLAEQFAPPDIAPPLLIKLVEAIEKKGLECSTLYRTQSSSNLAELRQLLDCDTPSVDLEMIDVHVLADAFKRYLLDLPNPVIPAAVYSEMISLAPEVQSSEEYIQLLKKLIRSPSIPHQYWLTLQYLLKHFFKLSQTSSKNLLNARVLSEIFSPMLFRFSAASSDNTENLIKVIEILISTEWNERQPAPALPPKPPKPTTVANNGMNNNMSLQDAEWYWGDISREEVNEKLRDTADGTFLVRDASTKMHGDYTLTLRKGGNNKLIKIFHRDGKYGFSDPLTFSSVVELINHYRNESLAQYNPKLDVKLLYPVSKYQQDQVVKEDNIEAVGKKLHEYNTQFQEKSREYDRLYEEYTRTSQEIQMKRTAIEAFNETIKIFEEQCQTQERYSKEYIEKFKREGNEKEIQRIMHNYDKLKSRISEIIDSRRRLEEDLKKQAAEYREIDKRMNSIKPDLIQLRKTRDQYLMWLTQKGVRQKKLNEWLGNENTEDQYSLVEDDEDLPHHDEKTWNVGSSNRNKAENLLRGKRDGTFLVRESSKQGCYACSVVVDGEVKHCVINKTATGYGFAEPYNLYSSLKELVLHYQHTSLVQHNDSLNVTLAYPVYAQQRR
p110β/p85, sequence (P42338 whole entry, species assumed): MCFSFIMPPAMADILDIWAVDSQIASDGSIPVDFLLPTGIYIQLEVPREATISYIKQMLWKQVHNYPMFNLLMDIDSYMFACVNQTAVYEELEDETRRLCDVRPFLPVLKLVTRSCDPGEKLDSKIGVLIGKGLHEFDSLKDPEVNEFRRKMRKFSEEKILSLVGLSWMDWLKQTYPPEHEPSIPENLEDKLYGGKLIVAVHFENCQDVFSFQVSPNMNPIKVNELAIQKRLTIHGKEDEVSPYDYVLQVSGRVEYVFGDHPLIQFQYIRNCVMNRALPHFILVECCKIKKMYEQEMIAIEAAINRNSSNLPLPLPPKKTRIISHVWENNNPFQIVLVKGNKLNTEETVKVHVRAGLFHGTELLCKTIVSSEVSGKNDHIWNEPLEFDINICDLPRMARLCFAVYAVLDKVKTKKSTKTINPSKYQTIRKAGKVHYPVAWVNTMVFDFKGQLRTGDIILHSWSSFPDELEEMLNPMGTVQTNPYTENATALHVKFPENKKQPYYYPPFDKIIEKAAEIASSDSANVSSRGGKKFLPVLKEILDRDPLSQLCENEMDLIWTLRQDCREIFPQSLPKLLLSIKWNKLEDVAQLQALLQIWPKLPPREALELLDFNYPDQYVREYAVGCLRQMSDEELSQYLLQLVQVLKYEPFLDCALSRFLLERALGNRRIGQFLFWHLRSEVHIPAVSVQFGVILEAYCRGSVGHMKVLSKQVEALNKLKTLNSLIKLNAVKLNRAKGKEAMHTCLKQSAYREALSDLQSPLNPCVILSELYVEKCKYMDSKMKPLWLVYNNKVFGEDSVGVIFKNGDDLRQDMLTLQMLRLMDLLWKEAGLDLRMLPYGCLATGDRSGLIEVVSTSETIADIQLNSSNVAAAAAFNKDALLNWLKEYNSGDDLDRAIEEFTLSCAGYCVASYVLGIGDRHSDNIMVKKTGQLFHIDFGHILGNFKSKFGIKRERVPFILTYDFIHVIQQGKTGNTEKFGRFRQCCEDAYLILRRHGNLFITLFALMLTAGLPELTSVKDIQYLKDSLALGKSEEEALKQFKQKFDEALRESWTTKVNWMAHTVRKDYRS
p110β/p85, sequence (P27986 whole entry partner, species assumed): as the sequence (P27986 whole entry partner) above
p110δ/p85, sequence (O00329 whole entry, species assumed): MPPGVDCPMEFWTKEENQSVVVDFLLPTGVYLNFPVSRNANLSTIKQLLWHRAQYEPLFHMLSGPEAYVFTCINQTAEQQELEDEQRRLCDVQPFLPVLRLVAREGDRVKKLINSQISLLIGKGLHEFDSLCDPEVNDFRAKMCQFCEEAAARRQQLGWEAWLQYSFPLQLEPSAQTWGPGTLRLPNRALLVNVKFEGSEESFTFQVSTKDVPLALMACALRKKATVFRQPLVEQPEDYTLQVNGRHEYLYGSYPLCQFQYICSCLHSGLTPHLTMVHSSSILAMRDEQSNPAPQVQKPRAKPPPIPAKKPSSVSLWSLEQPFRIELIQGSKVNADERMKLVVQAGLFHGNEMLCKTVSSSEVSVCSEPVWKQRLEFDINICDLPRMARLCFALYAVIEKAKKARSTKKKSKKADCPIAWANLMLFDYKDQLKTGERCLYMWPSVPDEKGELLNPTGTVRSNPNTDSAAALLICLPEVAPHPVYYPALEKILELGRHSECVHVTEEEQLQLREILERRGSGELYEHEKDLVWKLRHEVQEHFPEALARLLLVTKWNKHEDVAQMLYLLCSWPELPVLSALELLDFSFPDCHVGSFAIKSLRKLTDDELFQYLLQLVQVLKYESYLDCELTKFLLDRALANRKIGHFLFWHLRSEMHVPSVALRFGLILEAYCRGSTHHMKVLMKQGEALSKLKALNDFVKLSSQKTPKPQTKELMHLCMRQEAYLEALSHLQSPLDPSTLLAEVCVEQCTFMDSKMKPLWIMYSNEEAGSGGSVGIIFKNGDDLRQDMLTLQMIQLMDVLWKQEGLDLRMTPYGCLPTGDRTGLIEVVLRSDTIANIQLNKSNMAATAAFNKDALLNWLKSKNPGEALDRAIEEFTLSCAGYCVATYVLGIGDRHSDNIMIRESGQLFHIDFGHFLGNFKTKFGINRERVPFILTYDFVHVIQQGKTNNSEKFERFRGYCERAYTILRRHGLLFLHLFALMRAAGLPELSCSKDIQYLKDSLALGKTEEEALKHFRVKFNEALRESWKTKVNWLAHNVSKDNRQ
p110δ/p85, sequence (P27986 whole entry partner, species assumed): as the sequence (P27986 whole entry partner) above

| melting point [°C] | IC50 (p110α/p85) [µM] | IC50 (p110β/p85) [µM] | IC50 (p110δ/p85) [µM] | SMILES | tolerability (human tumor xenografts) | PI3K isoform selectivity (PI3K) | IC50 (NZOV9) [µM] | IC50 (NZB5) [µM] |
| --- | --- | --- | --- | --- | --- | --- | --- | --- |
| – | – | – | – | O=c1cc(N2CCOCC2)oc2c(-c3ccccc3)cccc12 [LY294002] | well-tolerated | – | – | – |
| – | – | – | – | Cc1ccccc1-n1c(Cn2cnc3c(N)ncnc32)nc2cccc(C)c2c1=O [IC87114] | – | δ-selective | – | – |
| – | – | – | – | Oc1cccc(-c2nc(N3CCOCC3)c3oc4ncccc4c3n2)c1 [PI103] | – | slightly α-selective | – | – |
| – | – | – | – | FC(F)c1nc2ccccc2n1-c1nc(N2CCOCC2)nc(N2CCOCC2)n1 [ZSTK474] | – | non-selective | – | – |
| – | – | – | – | Cc1cc(C(C)Nc2ccccc2)c2nc(N3CCOCC3)cc(=O)n2c1 (centres unmarked) [TGX221] | – | β-selective | – | – |
| 218 to 221 | < 0.1 | 0.1 to 1 | < 0.1 | CNc1ccc(Nc2nc(N3CCOCC3)nc(-n3c(C(F)F)nc4c(OC)cccc43)n2)cn1 [Example 38, N^5-[4-[2-(difluoromethyl)-4-methoxy-1H-benzimidazol-1-yl]-6-(4-morpholinyl)-1,3,5-triazin-2-yl]-N^2-methyl-2,5-pyridinediamine] | – | – | < 0.1 | < 0.1 |
| 271 to 273 | < 0.1 | 0.1 to 1 | < 0.1 | FC(F)c1nc2ccccc2n1-c1nc(Nc2cccnn2)nc(N2CCOCC2)n1 [Example 23, 4-[2-(difluoromethyl)-1H-benzimidazol-1-yl]-6-(4-morpholinyl)-N-(3-pyridazinyl)-1,3,5-triazin-2-amine] | – | – | 0.1 to 1 | 0.1 to 1 |
| 261 to 263 | < 0.1 | 0.1 to 1 | < 0.1 | COc1cccc2c1nc(C(F)F)n2-c1nc(Nc2ccc(F)nc2)nc(N2CCOCC2)n1 [Example 29, 4-[2-(difluoromethyl)-4-methoxy-1H-benzimidazol-1-yl]-N-(6-fluoro-3-pyridinyl)-6-(4-morpholinyl)-1,3,5-triazin-2-amine] | – | – | < 0.1 | < 0.1 |
| 171 to 174 | 0.1 to 1 | 0.1 to 1 | < 0.1 | FC(F)c1nc2ccccc2n1-c1nc(Nc2ccccc2)nc(N2CCOCC2)n1 [Example 6, 4-[2-(difluoromethyl)-1H-benzimidazol-1-yl]-6-(4-morpholinyl)-N-phenyl-1,3,5-triazin-2-amine] | – | – | 0.1 to 1 | 0.1 to 1 |
| 293 to 295 | < 0.1 | 0.1 to 1 | < 0.1 | COc1cccc2c1nc(C(F)F)n2-c1nc(Nc2cncnc2)nc(N2CCOCC2)n1 [Example 31, 4-[2-(difluoromethyl)-4-methoxy-1H-benzimidazol-1-yl]-6-(4-morpholinyl)-N-(5-pyrimidinyl)-1,3,5-triazin-2-amine] | – | – | < 0.1 | < 0.1 |
| 136 to 137 | < 0.1 | 0.1 to 1 | < 0.1 | COc1cccc2c1nc(C(F)F)n2-c1nc(Nc2ccc(N(C)C)nc2)nc(N2CCOCC2)n1 [Example 39, N^5-[4-[2-(difluoromethyl)-4-methoxy-1H-benzimidazol-1-yl]-6-(4-morpholinyl)-1,3,5-triazin-2-yl]-N^2,N^2-dimethyl-2,5-pyridinediamine] | – | – | < 0.1 | < 0.1 |
